Measurements taken from patent US7173062B2, “Method for the improvement of skin wrinkles using retinyl retinoate” (Enprani Co., Ltd., priority 2001, dated 2007).
Entries after “also recorded” stand apart in the source; their conditions may differ.

Assays:
RAR γ = molecular target: T1, RAR γ (Homo sapiens, UniProt P13631); test: Activity for RAR γ (CAT reporter in HaCaT cells); format: cell-based; conditions: 1 μM, CAT ELISA
T1 construct: expressed in transfected cells; host or cells: HaCaT
T1 sequence (P13631 1-454): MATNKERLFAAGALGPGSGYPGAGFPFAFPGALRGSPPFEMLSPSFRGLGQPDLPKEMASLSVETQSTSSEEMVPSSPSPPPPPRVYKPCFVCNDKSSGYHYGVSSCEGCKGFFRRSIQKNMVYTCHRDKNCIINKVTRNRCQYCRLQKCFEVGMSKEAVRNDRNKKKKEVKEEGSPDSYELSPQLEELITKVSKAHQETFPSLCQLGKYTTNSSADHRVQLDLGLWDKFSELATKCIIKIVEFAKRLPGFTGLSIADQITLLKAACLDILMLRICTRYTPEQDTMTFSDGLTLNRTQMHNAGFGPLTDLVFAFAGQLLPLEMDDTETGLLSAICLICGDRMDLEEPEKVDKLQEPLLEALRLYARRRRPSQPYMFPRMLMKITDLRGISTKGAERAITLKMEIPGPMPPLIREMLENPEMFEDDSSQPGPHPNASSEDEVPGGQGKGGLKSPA
Description: (§1) The effect of the retinol derivatives on the activity of RAR and RXR was examined as follows.
(§2) Experimental procedure: Recombinant gene of DR5-tk-CAT or DR1-tk-CAT comprising DR1 or DR5 as a response element of RAR/RXR, […] promoter, and CAT (chloramphenicol acetyl transferase) was suitably combined with a plasmid DNA that expresses RAR α, β, γ and cotransfected to HaCaT cell line, a skin cancer cell line, with Lipofectamin (GibcoBRL). Then, the cells were incubated in DMEM/10% FBS medium for 1 day, retinol derivative was added in a concentration of 1 μM, and the cells were incubated again for 1 day under the condition of 5% CO2 and 37° C. The cells were washed with phosphate-buffered salione (PBS). Proteins were extracted from each cell, the activity of β-galactosidase was assayed, and the amount of protein was measured to determine the transfection efficiency. Further, the degree of transcription for RAR or RXR was analyzed by CAT ELISA (Roche Molecular Biochemicals, Mannheim, Germany).

[1] = Photostability test (UV-A 356 nm, 1H NMR); format: physicochemical; parameters: key: 4 = No qualitative change in ^1H NMR spectrum; 3 = Minute noise but no qualitative change in ^1H NMR spectrum; 2 = Clear noise and some qualitative change in ^1H NMR spectrum; 1 = Qualitative confirmation is difficult in ^1H NMR spectrum; conditions: room temperature
Description: In order to examine photostability of the compound of formula (1) compared with retinol, 10 mg of sample was irradiated by UV-A light (wavelength 356 nm) using a Spectroline (Model CM-10; Fluorescence analysis cabinet; Spectronics Corporation, Westbury, N.Y., USA) at certain intervals of time at room temperature.

skin of normal adults = test: Test for skin irritation property (closed patch test); format: in vivo, human; conditions: closed patch test 24 hours, 20 adults
Description: In order to examine the skin irritation of the compound of formula (1), a patch test for the skin of normal adults was carried out. As the carrier, capryl caprylic triglyceride or the conventional O/W formulation was used, and twenty (20) adults per a group were tested for 24 hours.
The conventional O/W formulation used in the present experiment was prepared according to the following procedure.
Each of the aqueous part of Nos. 1–6 and the oily part of Nos. 7–13 as shown in the following Table 1 was heated to 75–80° C. to be thoroughly dissolved. The oily part was slowly added to the aqueous part and emulsification was performed for 5 minutes at 75–80° C. in a homomixer of 3000rpm. During the emulsification, the mixture was neutralized by the neutralizing agent of No. 14. After the first emulsification, the mixture was cooled, the retinal retaliate and fragrance of Nos. 15–16 were added at 50–55° C., and then the second emulsification was carried out for 3 minutes in a homomixer of 3000rpm. The mixture was cooled again to 27–30° C. to prepare the composition of O/W formulation.
From the experimental results, the irritation indexes were calculated according to the following Equation 1 and the results are represented in the following Table 2. Irritation index={Σ(Test Value×Number of Examinees Corresponding to the Test Value)/(Total Examinees×The Maximum Test Value)×100 Equation 1
Test Value +++: 5, ++: 4, +: 3, +−: 2, −:1
The degree of irritation was determined according to the following standards:
1.9 or less: Minute irritation, 2.0–2.9: Weak irritation, 3.0–3.9: Moderate irritation, 4.0 or more: Strong irritation

RAR β = molecular target: T2, RAR β (Homo sapiens, UniProt P10826); test: Activity for RAR β (CAT reporter in HaCaT cells); format: cell-based; conditions: 1 μM, CAT ELISA
T2 construct: expressed in transfected cells; host or cells: HaCaT
T2 sequence (P10826 1-455): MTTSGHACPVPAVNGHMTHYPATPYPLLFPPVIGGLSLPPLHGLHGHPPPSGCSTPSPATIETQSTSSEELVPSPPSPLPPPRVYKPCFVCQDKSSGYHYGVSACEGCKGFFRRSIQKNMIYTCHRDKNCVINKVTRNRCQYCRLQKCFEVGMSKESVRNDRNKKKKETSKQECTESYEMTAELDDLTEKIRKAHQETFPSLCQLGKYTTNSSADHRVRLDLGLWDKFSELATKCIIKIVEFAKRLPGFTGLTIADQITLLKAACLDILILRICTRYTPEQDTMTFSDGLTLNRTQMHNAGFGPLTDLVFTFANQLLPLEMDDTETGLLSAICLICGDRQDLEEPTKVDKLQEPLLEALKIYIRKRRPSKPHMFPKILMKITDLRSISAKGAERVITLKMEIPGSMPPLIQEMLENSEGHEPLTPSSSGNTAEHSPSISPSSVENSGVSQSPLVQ
Description: as §1, §2

[2] = test system: normal human fibroblast (Newborn); test: Cell toxicity test (MTT method); format: cell-based; conditions: comparison in words
Description: Cell toxicity of the compound of formula (1) is examined at concentrations ranging from 10^−6 to 10^−3%(W/V) using normal human fibroblast (Newborn), and the skin irritating property is examined by a patch test for the skin of normal adults. Further, the effect of increasing the collagen synthesis in a human fibroblast cell is measured to identify the cell regeneration effect of the compound of formula (1), photostability is identified by measuring ^1H NMR of the compound of formula (1) after the compound is irradiated by UV light (356 nm) at certain intervals of time, and thermal stability is identified by quantifying the amount at 40° C. (Experiments 1 to 5).
In order to verify the primary stability as a material for medicines and cosmetics, cell toxicity of the retinal retaliate of formula (1) was determined according to MTT method (see: Mossman T., Rapid calorimetric assay for cellular growth & amp;survival:application to proliferation & amp;cytotoxity assays. Journal of Immunological Methods 65, 55–63, 1983) using normal human fibroblast (Newborn) and the results are shown in FIG. 1.

[3] = 0.075% in C.C.T (capryl caprylic triglyceride)
[4] = Control = 1.0, listed as compound of formula (1)

For `CC1=C(/C=C/C(C)=C/C=C/C(C)=C/CO)C(C)(C)CCC1` [Retinol], which “Relative activity against RAR γ” value (RAR γ; Control = 1.0) is on record?
Its value is 0.9.

And the Photostability level ([1]; After 0 hour, 10 mg sample)?
Its Photostability level is 4.

What about the Photostability level ([1]; After 2 hours) of the same compound?
The Photostability level was 3.

What about the Photostability level ([1]; After 12 hours) of the same compound?
Its Photostability level is 2.

What about the Photostability level ([1]; After 24 hours) of the same compound?
Its Photostability level is 1.

And the Photostability level ([1]; After 48 hours)?
Its Photostability level is 1.

What about the “Irritation Index” value (skin of normal adults; [3]) of the same compound?
Its value is 2.5.

And the “Degree of Irritation” value (skin of normal adults; 0.075% in C.C.T)?
Its value is “Weak irritation (2.0–2.9: Weak irritation)”.

And the “Relative activity against RAR β” value (RAR β; Control = 1.0)?
The value was 1.3.

Which “cell toxicity (FIG. 1)” value [2] does the source give for `CC1=C(/C=C/C(C)=C/C=C/C(C)=C/COC(=O)/C=C(C)/C=C/C=C(C)/C=C/C2=C(C)CCCC2(C)C)C(C)(C)CCC1` [Compound of formula (1), Retinyl retinoate] here?
The value was “lower intracellular toxicity than retinol, retinoic acid, or derivatives thereof”.

What about the “Relative activity against RAR γ” value (RAR γ; Control = 1.0) of the same compound?
The value was 1.1.

And the “Relative activity against RAR γ” value (RAR γ; [4])?
Its value is “lower activity than retinoic acid but higher one than retinol; also recorded: low activity”.

What about the Photostability level ([1]; After 0 hour, 10 mg sample) of the same compound?
Its Photostability level is 4.

And the Photostability level ([1]; After 2 hours)?
Its Photostability level is 4.

What about the Photostability level ([1]; After 12 hours) of the same compound?
The Photostability level was 3.

And the Photostability level ([1]; After 24 hours)?
The Photostability level was 3.

What about the Photostability level ([1]; After 48 hours) of the same compound?
Its Photostability level is 3.

What about the “Irritation Index” value (skin of normal adults; [3]) of the same compound?
Its value is 1.3.

And the “Degree of Irritation” value (skin of normal adults; 0.075% in C.C.T)?
Its value is “Minute irritation (1.9 or less: Minute irritation)”.

What about the “Degree of Irritation” value (skin of normal adults; 0.3% in C.C.T) of the same compound?
The value was “Minute irritation (1.9 or less: Minute irritation)”.

What about the “Irritation Index” value (skin of normal adults; 0.3% in C.C.T) of the same compound?
Its value is 1.3.

And the “Degree of Irritation” value (skin of normal adults; 0.3% in O/W Formulation)?
Its value is “Weak irritation (2.0–2.9: Weak irritation)”.

What about the “Irritation Index” value (skin of normal adults; 0.3% in O/W Formulation) of the same compound?
The value was 2.0.

And the “Degree of Irritation” value (skin of normal adults; 0.55% in C.C.T)?
The value was “Minute irritation (1.9 or less: Minute irritation)”.

What about the “Irritation Index” value (skin of normal adults; 0.55% in C.C.T) of the same compound?
Its value is 1.3.

And the “Relative activity against RAR β” value (RAR β; Control = 1.0)?
The value was 1.5.

And the “Relative activity against RAR β” value (RAR β; [4])?
Its value is “lower activity than retinoic acid but higher one than retinol; also recorded: low activity”.
